Laboratory results reported in US7285557B2, “Pyrimidinones as melanin concentrating hormone receptor 1” (SmithKline Beecham P.L.C., priority 2001, dated 2007).

Target: T1, human melanin-concentrating hormone one receptor (Homo sapiens, UniProt Q99705)
T1 construct: expressed in transfected cells; host or cells: CHO (CHO-K1) cells stably expressing an elkgal4-luc+ reporter gene
Assay: Functional antagonist assay of MCHR1 (elkgal4-luc+ luciferase reporter gene in CHO cells, inhibition of MCH EC80 response)
Assay type: cell-based
Conditions: MCH1R-elkgal4-luc+ CHO cells, luciferase readout, read-out: MCHR1 pIC50 (converted)
Experimental: Chinese hamster ovary (CHO-K1) cells were obtained from the American Type Culture Collection (Rockville, Md.).
CHO cells, stably expressing an elkgal4-luc^+ reporter gene (host) were transfected by electroporation with the human melanin-concentrating hormone one receptor. A stable clone was selected using G418 for functional antagonist assays. MCH1R-elkgal4-luc^+ CHO cells were propagated in complete medium (DMEM/F12, 5% FBS, 2 mM I-glutamine) in T225 flasks. Forty-eight hours prior to assay, cells were harvested with 2 mL of 0.05% trypsin, washed with complete medium and plated at a concentration of 10,000 cells/well in complete medium in black 96-well plates. Eighteen hours prior to the assay, the medium was removed from the cells by aspiration and replaced with 90 μl/well of serum-free DMEM/F12. […] Plates were sealed and subjected to dark adaptation at room temperature for 10 minutes before luciferase activity was quantitated on a TopCount™ microplate scintillation counter (Packard) using 3 seconds/well count time. The ability of the antagonist to inhibit the MCH EC80 response was quantified by non-linear regression analysis using a curve-fitting program based in Microsoft ExCel. Specificity of the MCHR1 response was determined using the same protocol by measuring the ability of said antagonists to inhibit an EC80 thrombin response (endogenous) in the host cells.

T1 sequence (Q99705 whole entry, the tested form may be a part): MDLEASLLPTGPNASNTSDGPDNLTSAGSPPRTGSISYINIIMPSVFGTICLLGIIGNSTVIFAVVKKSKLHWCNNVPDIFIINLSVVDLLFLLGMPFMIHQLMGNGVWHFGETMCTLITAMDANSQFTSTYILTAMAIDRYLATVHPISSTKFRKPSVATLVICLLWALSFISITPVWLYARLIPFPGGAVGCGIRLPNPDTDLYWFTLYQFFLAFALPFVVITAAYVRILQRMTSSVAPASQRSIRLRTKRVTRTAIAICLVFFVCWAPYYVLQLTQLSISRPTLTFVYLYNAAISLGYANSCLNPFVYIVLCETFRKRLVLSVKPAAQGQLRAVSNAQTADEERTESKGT

Row | Compound | IC50 [nM]
1 | COc1cc(-n2cnc3cc(-c4ccccc4)ccc3c2=O)ccc1OCCN1CCCCC1 [Example H1, 3-{3-methoxy-4-[2-(1-piperidinyl)ethoxy]phenyl}-7-phenyl-4(3H)-quinazolinone] | 79.4
2 | COc1cc(-n2cnc3cc(-c4ccc(C(F)(F)F)cc4)ccc3c2=O)ccc1OCCN1CCCC1 [Example J1, 3-{3-methoxy-4-[2-(1-pyrrolidinyl)ethoxy]phenyl}-7-[4-(trifluoromethyl)phenyl]-4(3H)-quinazolinone] | 63.1
